Source: PMC3426654 (Biochemistry, 2012)

Target: TcUGM (UDP-galactopyranose mutase from Trypanosoma cruzi) (Trypanosoma cruzi, UniProt Q4E1W2)
Assay: X-ray crystal structure, […] Å
Assay type: binding
Details: UDP complex, pH 7.5

| SMILES | X-ray crystal structure, 2.25 Å (crystals reduced by soaking in 60 mM dithionite) | X-ray crystal structure, 2.25 Å (oxidized enzyme) |
| --- | --- | --- |
| Cc1cc2c(cc1C)N(C[C@H](O)[C@H](O)[C@H](O)COP(=O)(O)OP(=O)(O)OC[C@H]1O[C@@H](n3cnc4c(N)ncnc43)[C@H](O)[C@@H]1O)c1[nH]c(=O)[nH]c(=O)c1N2 [FADH^−] | In the reduced enzyme, the FAD exhibits a butterfly-like conformation |  |
| Cc1cc2nc3c(=O)[nH]c(=O)nc-3n(C[C@H](O)[C@H](O)[C@H](O)COP(=O)(O)OP(=O)(O)OC[C@H]3O[C@@H](n4cnc5c(N)ncnc54)[C@H](O)[C@@H]3O)c2cc1C [FAD] |  | In the oxidized state, the electron density maps are consistent with a planar isoalloxazine |
